Data as given in patent US5736523A, “Antineoplastic heteronapthoquinones” (Biochem Pharma Inc., priority 1995, dated 1998).
Structures can show the parent of a compound that is named as a salt.

These compounds were tested on SKVLB (Ovarian; multidrug resistant) (assay: In vitro cytotoxicity, microculture tetrazolium (MTT) assay, SKVLB). Details: Homo sapiens.
Format: cell-based, human
Protocol: In Vitro Cytotoxicity--Microculture Tetrazolium Assay
The microculture tetrazolium assay was used to test in vitro cytotoxicity. This assay is described in Plumb, J. A. et al., 1989 Cancer Research 49, 4435-4440, which is herein incorporated by reference. The cytotoxicity of compounds towards tumor cells is measured in vitro using the assay. This assay method is based upon the ability of live, but not dead cells to reduce the yellow water soluble dye 3-(4;5-dimethylthiazol-2-yl)-2,5-diphenyltetrazolium bromide (MTT) to its water insoluble purple formazan product.
Human Tumor Cell lines, used were:
SKVLB (Ovarian; multidrug resistant)--Dr. V. Ling, Ontario
The cells were maintained in exponential growth in culture in minimal essential media (MEM) supplemented with non-essential amino acids, and containing 15% (v/v) fetal bovine serum, 5 mM L-glutamine, 1 mM sodium pyruvate, and 0.1 U/ml insulin. All cell lines were grown at 37° C. in an atmosphere of 5% CO2 in air.
Test compounds: 20 mM in DMSO and diluted to a final concentration of 200 μM in culture medium before use.
The following is the generic description of the assay method. It should be noted that although the conditions described work well with the cells listed above, the initial plating density and the MTT concentration used should be verified for each new cell line used to test compounds.
For each assay, doxorubicin is included as an inter-assay standard. This allows us to monitor the behaviour of the assay in general, and in particular, to check that the SKVLB line has maintained its resistant phenotype.
The plate layout is done in the following manner: The assays are carried out in 96-well (8 well×12 well) microtiter plates. Serial dilutions of the compound are tested along the length of the plate. A 1:3 serial dilution of compound in culture medium covers a concentration range from 100 μM to 1.7 nM. Each concentration of compound is tested in quadruplet, allowing two compounds to be tested per plate. Wells containing no cells (blank) and cells with no test compound (control) are included on each plate.
Cells are plated out in 100 μl of culture medium in the microtiter plates at a density of around 1,500-4,000 cells per well. The plates are incubated overnight to allow the cells to become adherent after which the test compound is added (100 μl of appropriate dilution per well). The cells are incubated with test compound at 37° C. for 48 h after which the compound is replaced with fresh medium. After a further 48 h incubation at 37° C., 50 μl of MTT solution (2 mg/ml) is added to each well. The plates are incubated in the dark for 4 h at 37° C. after which the medium is removed. The MTT formazan product is extracted from the cells by the addition of 200 μl DMSO followed by 50 μl of Sorensen's buffer. The plates are shaken briefly and the absorbance at 570 nm is read using a Molecular Devices UV max plate reader. Curves are fit to the MTT assay data using a four parameter logistic equation, and the data are normalized to fit a 0% to 100% survival scale.

| SMILES | IC50 [µM] |
| --- | --- |
| COC(=O)C1=CC2=C(CO1)C(=O)c1ccccc1C2=O [BCH2830, 3-methoxy carbonyl-5,10-dioxo-5,10-dihydro-1H-naphtho-[2,3-c]-pyran] | 10.8 |

Same assay, conditions: Homo sapiens, SKVLB, multidrug resistant; read-out: IC50

| SMILES | IC50 [µM] |
| --- | --- |
| CO[C@H]1O[C@H](C(=O)Nc2ccccc2)CC2=C1C(=O)c1ccccc1C2=O (relative stereo) [BCH2041, (1,3-trans)-1-methoxy-3-N-anilinylcarbonyl-5,10-dioxo-3,4,5,10-tetrahydro-1H-naphtho-[2,3-c]-pyran] | 10 |

Same assay, conditions: SKVLB cell line

| SMILES | multidrug resistance / effectiveness in multidrug resistant cell line |
| --- | --- |
| COC1OC(C(=O)NCCCN(C)C)=CC2=C1C(=O)c1ccccc1C2=O (centres unmarked) [BCH2051, 1-Methoxy-5,10-dioxo-5,10-dihydro-1H-naphtho[2,3-c]pyran-3-[N-(3-dimethylamino-propyl)carboxamide] hydrochloride monohydrate] | significantly avoiding multidrug resistance |

Same assay, conditions: in vitro

| SMILES | in vitro antitumor potency |
| --- | --- |
| COC1OC(C(=O)NCCCN(C)C)=CC2=C1C(=O)c1ccccc1C2=O (centres unmarked) [BCH2051, 1-Methoxy-5,10-dioxo-5,10-dihydro-1H-naphtho[2,3-c]pyran-3-[N-(3-dimethylamino-propyl)carboxamide] hydrochloride monohydrate] | intense in vitro antitumor potency |

Same assay, conditions: ratio SKVLB / SKOV3

| SMILES | VLB/OV3 |
| --- | --- |
| CC(=O)[C@@H]1CC2=C(C(=O)c3ccccc3C2=O)[C@@H](O[C@H]2C[C@H](NC(=O)C(F)(F)F)[C@H](O)[C@H](C)O2)S1 [BCH2037, (1'S,1S,3S)-1-(3'-trifluoroacetamido-2',3',6'-trideoxy-L-lyxohexopyranose)-5,10-dioxo-3,4,5,10-tetrahydro-1H-naphtho-[2,3-c]-thiopyran] | 0.93-6.41 |
| CC(=O)C1CC2=C(C(=O)c3ccccc3C2=O)C(OCC2CCCNC2)O1 (mixture of isomers) [BCH2061, Methyl-(1-O-[3-piperidinemethanol]-5,10-dioxo-3,4,5,10-tetrahydronaphthaleno-[2,3-c]pyran3-yl) ketone hydrochloride salt, mixture of isomers] | 18 |
| CO[C@H]1C[C@H](O[C@H]2O[C@H](C(C)=O)C[C@]34O[C@]23C(=O)c2ccccc2C4=O)O[C@@H](C)[C@H]1OS(C)(=O)=O [BCH2141, (1'-S,1-R,3-S,4a-S,10a-S)-methyl-(1-[2',3',4',6'-tetradeoxy-3'-methoxy-4'-O-methanesulfonyl-L-lyxohexopyranose)-4a,10a-epoxy-5,10-dioxo-3,4,5,10-tetrahydronaphtho-[2,3-c]pyran-3-yl) ketone] | 1.23 |
| Nc1nc(C2CC3=C(CO2)C(=O)c2ccccc2C3=O)cs1 (centres unmarked) [BCH1189, 3-(3'-aminothiazolyl)-5,10-dioxo-1,3,4,5,10-pentahydronaphtho-[2,3-c]-pyran] | 4.09 |
| COC(=O)[C@]1(C)CC2=C(C(=O)c3ccccc3C2=O)[C@@H](O[C@H]2C[C@H](NC(=O)C(F)(F)F)[C@H](O)[C@H](C)O2)O1 [BCH2077, (1'S,1R,3S)-1-(3'-trifluoroacetamido-2',3',6'-trideoxy-L-lyxohexopyranose)-3-methoxycarbonyl-3-methyl-3,4,5,10-tetrahydro-5,10-dioxo-1H-naphtho-[2,3-c] pyran] | 11 |
| COC1OC(C(=O)Nc2ccccc2)=CC2=C1C(=O)c1ccccc1C2=O (centres unmarked) [BCH2044, 1-methoxy-3-N-anilinylcarbonyl-5,10-dioxo-5,10-dihydro-1H-naphtho-[2,3-c]-pyran] | 3.55 |
| CO[C@H]1C[C@H](O[C@H]2O[C@H](C(C)=O)CC3=C2C(=O)c2ccccc2C3=O)O[C@@H](C)[C@H]1OS(C)(=O)=O [BCH2070, (1'-S,1-R,3-S)-methyl-(1-[2',3',4',6' tetradeoxy-3'-methoxy-4'-O-methanesulfonyl-L-lyxohexopyranose)-5,10-dioxo-3,4,5,10 tetrahydronaphtho-[2,3-c]pyran-3-yl) ketone] | 14.34-15 |
| COC1OC(C(=O)NCCN2CCOCC2)=CC2=C1C(=O)c1ccccc1C2=O (centres unmarked) [BCH2170, 1-methoxy-3-[2-(N-morpholino)ethylaminocarbonyl]-5,10-dioxo-5,10-dihydro-1H-naphtho-[2,3-c]-pyran] | 1.52 |
| CC[C@H]1CC2=C(C(=O)c3ccccc3C2=O)[C@H](O[C@H]2C[C@H](N)[C@H](O)[C@H](C)O2)O1 [BCH2021, (1'S,1S,3S)-5,10-dioxo-3-ethyl-1-(2',3',6'-trideoxy-3'-amino-L-lyxohexopyranose)-3,4,5,10-tetrahydro-1H-naphtho-[2,3-c]-pyran] | 3.74 |
| CC(=O)C1CC2=C(C(=O)c3ccccc3C2=O)C(OCC2CCCN(C(=O)OC(C)(C)C)C2)O1 (mixture of isomers) [BCH2060, Methyl-(1-O-[N-BOC-3-piperidinemethanol]-5,6-dioxo-3,4,5,10-tetrahydronaphthaleno-[2,3-c]pyran-3-yl) ketone, mixture of isomers] | 2.19 |
| CC(=O)O[C@@H]1[C@H](C)O[C@@H](O[C@@H]2O[C@@H](C(C)=O)CC3=C2C(=O)c2ccccc2C3=O)C(Br)[C@@H]1OC(C)=O (stereo partly drawn) [BCH2099, (1'S,1S,3R)-methyl-(1-[2',6'-dideoxy-3',4'-diacetoxy-2'-bromo-L-lyxohexopyranose]-5,10-dioxo-3,4,5,10-tetrahydronaphtho-[2,3-c]-pyran-3-yl) ketone] | 0.77-2 |
| CC(=O)[C@@H]1CC2=C(C(=O)c3ccccc3C2=O)[C@@H](O[C@@H]2O[C@@H](C)[C@@H](O)[C@@H](NC(=O)C(F)(F)F)C2I)O1 (stereo partly drawn) [BCH2023, (1'S,1R,3S)-methyl-(1-[2',3',6'-trideoxy-2'-iodo-3'-trifluoroacetamido-4'-hydroxy-L-lyxohexopyranose]-5,10-dioxo-3,4,5,10-tetrahydronaphtho-[2,3-c]-pyran-3-yl) ketone] | 4.39 |
| CC[C@H]1CO[C@H](O[C@H]2C[C@H](NC(=O)C(F)(F)F)[C@H](O)[C@H](C)O2)C2=C1C(=O)c1ccccc1C2=O [BCH2091, (1'S,1R,4R)-5,10-dioxo-4-ethyl-1-(2',3',6'-trideoxy-3'-trifluoroacetamido-L-lyxohexopyranose)-3,4,5,10-tetrahydro-1H-naphtho-[2,3-c] pyran] | 3 |
| COC(=O)[C@@]1(C)CC2=C(C(=O)c3ccccc3C2=O)[C@H](O[C@H]2C[C@H](NC(=O)C(F)(F)F)[C@H](O)[C@H](C)O2)O1 [BCH2076, (1'S,1S,3R)-1-(3'-trifluoroacetamido-2',3',6'-trideoxy-lyxo-L-hexopyranose)-3-methoxycarbonyl-3-methyl-3,4,5,10-tetrahydro-5,10-dioxonaphtho-[2,3-c] pyran] | 9 |
| COCC1(COC)CC2=C(C(=O)c3ccccc3C2=O)[C@H](O[C@H]2C[C@H](NC(=O)C(F)(F)F)[C@H](O)[C@H](C)O2)O1 [BCH1697] | 3.57 |
| CO[C@H]1O[C@H](C(=O)O)CC2=C1C(=O)c1ccccc1C2=O (relative stereo) [BCH2045, (1,3-trans)-1-methoxy-3-carboxyl-5,10-dioxo-3,4,5,10-tetrahydro-1H-naphtho-[2,3-c]-pyran] | 3 |
| C[C@@H]1O[C@@H](OC2OC(C#N)CC3=C2C(=O)c2ccccc2C3=O)C[C@H](NC(=O)C(F)(F)F)[C@@H]1O (mixture of isomers) [BCH1688, (1'-S,1-R,3-S) and (1'-S,1-S,3-R)-3-cyano-1-[2',3',6'-trideoxy-3'-trifluoroacetamido-4'-hydroxy-L-lyxohexopyranose)-5,10-dioxo-3,4,5,10-tetrahydronaphtho-[2,3-C] pyran-3-yl] | 4.37 |
| CC(=O)C1CC2=C(C(=O)c3ccccc3C2=O)C(OCC2CCCCN2)O1 (racemic) [BCH2069, Methyl-(1-O-[2'-piperidinemethanol]-5,10-dioxo-3,4,5,10-tetrahydronaphthaleno-[2,3-c]pyran-3-yl) ketone, racemic, hydrochloride] | 2-9.8 |
| COC(=O)[C@H](CC(C)C)NC(=O)[C@H](CO[C@H]1O[C@H](C(C)=O)CC2=C1C(=O)c1ccccc1C2=O)NC(=O)OC(C)(C)C [BCH1998, (1S,2'S,3S,5'S)-Methyl-(1-O-[N-BOC-Serine-Leucine-Me ester]-5,10-dioxo-3,4,5,10-tetrahydro-1-H-naphtho [2,3-c]pyran-3-yl) ketone] | 13.28 |
| COC(=O)C1=CC2=C(CO1)C(=O)c1ccccc1C2=O [BCH2830, 3-methoxy carbonyl-5,10-dioxo-5,10-dihydro-1H-naphtho-[2,3-c]-pyran] | 1.52 |
| CO[C@H]1O[C@H](C(=O)Nc2ccccc2)CC2=C1C(=O)c1ccccc1C2=O (relative stereo) [BCH2041, (1,3-trans)-1-methoxy-3-N-anilinylcarbonyl-5,10-dioxo-3,4,5,10-tetrahydro-1H-naphtho-[2,3-c]-pyran] | 5 |
| CC(=O)CC1CC2=C(C(=O)c3cccc(O)c3C2=O)C(O[C@H]2C[C@H](NC(=O)C(F)(F)F)[C@H](O)[C@H](C)O2)O1 (mixture of isomers) [BCH2098, (1'-S,1-S,3-R) and (1'-S,1-R,3-S)-1-(6-hydroxy-1-(2',3',6'-trideoxy-3'-trifluoroacetamido,4-hydroxy-L-lyxopyranose)-5,10-dioxo-3,4,5,10 tetrahydronaphtho-[2,3-c]pyran-3-yl) propane-2-one] | 4 |
